Results published in US10781201B2, “Benzimidazole derivative having JNK inhibitory activity and use thereof” (INDUSTRY-UNIVERSITY COOPERATION FOUNDATION HANYANG …, priority 2017, dated 2020).
pIC50: −log10 of the molar value.

Biological target: human JNK3 enzyme (Homo sapiens, UniProt P53779)
Experiment: Measurement of JNK3 enzymatic activity (33P-ATP filter-binding method)
Type: biochemical
Conditions: ATP 10 μM, ATF2 3 μM
Experimental: First, a substrate was added to a prepared base reaction buffer solution (20 mM Hepes (pH 7.5), 10 mM MgCl2, 1 mM EGTA, 0.02% Brij35, 0.02 mg/ml BSA, 0.1 mM Na3VO4, 2 mM DTT, 1% DMSO), a human JNK3 enzyme was added into the prepared substrate solution, and the resulting solution was mixed. ATP (10 μM) and ATF2 (3 μM) were used as substrates, and among them, ATP was used as a common substrate. Next, the compound according to the present invention dissolved in 100% DMSO was added to an enzyme reaction solution, and incubated at room temperature for 20 minutes. Subsequently, ^33P-ATP was added to the mixed reaction solution to initiate the reaction, followed by incubation at room temperature for 2 hours, and enzymatic activity was detected by a filter-binding method. Specifically, 25 al per resulting solution was slowly spotted on P81 paper and placed in a scintillation vial, and then the paper was washed four times with 0.75% phosphoric acid for 10 minutes each and washed once with acetone for 5 minutes. 5 ml of a scintillation cocktail was added to the scintillation vial and signals were read using a scintillation counter.

Sequence of human JNK3 enzyme (P53779 whole entry): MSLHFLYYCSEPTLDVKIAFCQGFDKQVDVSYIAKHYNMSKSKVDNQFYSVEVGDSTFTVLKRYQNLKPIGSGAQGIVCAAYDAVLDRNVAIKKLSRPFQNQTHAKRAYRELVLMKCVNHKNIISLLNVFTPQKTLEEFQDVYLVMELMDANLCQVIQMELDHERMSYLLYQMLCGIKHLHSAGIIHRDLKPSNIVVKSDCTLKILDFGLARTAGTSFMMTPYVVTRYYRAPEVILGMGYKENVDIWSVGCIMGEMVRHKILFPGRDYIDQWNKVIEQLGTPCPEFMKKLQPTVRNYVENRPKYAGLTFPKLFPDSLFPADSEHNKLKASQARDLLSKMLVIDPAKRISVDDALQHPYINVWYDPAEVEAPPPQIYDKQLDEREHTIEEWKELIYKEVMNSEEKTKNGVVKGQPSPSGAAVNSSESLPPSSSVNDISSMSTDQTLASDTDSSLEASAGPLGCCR

SMILES | pIC50 (Table 1) | pIC50 (Table 2)
Oc1ccc2c(c1)nc(-c1ccc3ccccc3c1)n2-c1ccnc(NC2CCOCC2)n1 [Compound 9a, 2-(naphthalene-2-yl)-1-(2-((tetrahydro-2H-pyran-4-yl)amino)pyrimidin-4-yl)-1H-benzo[d]imidazole-5-ol] | < 7.00 | –
Oc1ccc2c(c1)nc(-c1ccc3c(c1)OCCO3)n2-c1ccnc(NC2CCOCC2)n1 [Compound 9c, 2-(2,3-dihydrobenzo[b][1,4]dioxin-6-yl)-1-(2-((tetrahydro-2H-pyran-4-yl)amino)pyrimidin-4-yl)-1H-benzo[d]imidazole-5-ol] | < 7.00 | –
Oc1ccc2c(c1)nc(-c1ccc3occc3c1)n2-c1ccnc(NC2CCOCC2)n1 [Compound 9d, 2-(benzofuran-5-yl)-1-(2-((tetrahydro-2H-pyran-4-yl)amino)pyrimidin-4-yl)-1H-benzo[d]imidazole-5-ol] | < 7.00 | –
Oc1ccc2c(c1)nc(-c1ccc(Cl)c(Cl)c1)n2-c1ccnc(NC2CCOCC2)n1 [Compound 9e] | 7.00 to 7.52 | –
Oc1ccc2c(c1)nc(-c1ccc(F)c(C(F)(F)F)c1)n2-c1ccnc(NC2CCOCC2)n1 [Compound 9f, 2-(4-fluoro-3-(trifluoromethyl)phenyl)-1-(2-((tetrahydro-2H-pyran-4-yl)amino)pyrimidin-4-yl)-1H-benzo[d]imidazole-5-ol] | 7.00 to 7.52 | –
Oc1ccc2c(c1)nc(-c1ccc3ccccc3c1)n2-c1ccnc(NC2CCCCC2)n1 [Compound 10a, 1-(2-(cyclohexylamino)pyrimidin-4-yl)-2-(naphthalene-2-yl)-1H-benzo[d]imidazole-5-ol] | < 7.00 | –
Oc1ccc2c(c1)nc(-c1ccc3c(c1)OCCO3)n2-c1ccnc(NC2CCCCC2)n1 [Compound 10c, 1-(2-(cyclohexylamino)pyrimidin-4-yl)-2-(2,3-dihydrobenzo[b][1,4]dioxin-6-yl)-1H-benzo[d]imidazole-5-ol] | < 7.00 | –
Oc1ccc2c(c1)nc(-c1ccc3occc3c1)n2-c1ccnc(NC2CCCCC2)n1 [Compound 10d, 2-(benzofuran-5-yl)-1-(2-(cyclohexylamine)pyrimidin-4-yl)-1H-benzo[d]imidazole-5-ol] | < 7.00 | –
Oc1ccc2c(c1)nc(-c1ccc(Cl)c(Cl)c1)n2-c1ccnc(NC2CCCCC2)n1 [Compound 10e, 1-(2-(cyclohexylamino)pyrimidin-4-yl)-2-(3,4-dichlorophenyl)-1H-benzo[d]imidazole-5-ol] | < 7.00 | –
Oc1ccc2c(c1)nc(-c1ccc(F)c(C(F)(F)F)c1)n2-c1ccnc(NC2CCCCC2)n1 [Compound 10f, 1-(2-(cyclohexylamino)pyrimidin-4-yl)-2-(4-fluoro-3-(trifluoromethyl)phenyl)-1H-benzo[d]imidazole-5-ol] | < 7.00 | –
O=C(C1CC1)N1CCC[C@H](Nc2nccc(-n3c(-c4ccc5ccccc5c4)nc4cc(O)ccc43)n2)C1 [Compound 13a, (S)-cyclopropyl(3-((4-(5-hydroxy-2-(naphthalene-2-yl)-1H-benzo[d]imidazole-1-yl)pyrimidin-2-yl)amino)piperidine-1-yl)methanone] | 7.00 to 7.52 | –
O=C(C1CC1)N1CCC[C@H](Nc2nccc(-n3c(-c4ccc5ccccc5n4)nc4cc(O)ccc43)n2)C1 [Compound 13b, (S)-cyclopropyl(3-((4-(5-hydroxy-2-(Quinoline-2-yl)-1H-benzo[d]imidazole-1-yl)pyrimidin-2-yl)amino)piperidine-1-yl)methanone] | 7.00 to 7.52 | –
O=C(C1CC1)N1CCC[C@H](Nc2nccc(-n3c(-c4ccc5c(c4)OCCO5)nc4cc(O)ccc43)n2)C1 [Compound 13c, (S)-cyclopropyl(3-((4-(2-(2,3-dihydrobenzo[b][1,4]dioxin-6-yl)-5-hydroxy-1H-benzo[d]imidazole-1-yl)pyrimidin-2-yl)amino)piperidine-1-yl)methanone] | 7.00 to 7.52 | –
O=C(C1CC1)N1CCC[C@H](Nc2nccc(-n3c(-c4ccc5occc5c4)nc4cc(O)ccc43)n2)C1 [Compound 13d, (S)-(3-(4-(2-(benzofuran-5-yl)-5-hydroxy-1H-benz[d]imidazole-1-yl)pyrimidin-2-ylamino)piperidine-1-yl)(cyclopropyl)methanone] | > 7.52 | –
O=C(C1CC1)N1CCC[C@H](Nc2nccc(-n3c(-c4ccc(Cl)c(Cl)c4)nc4cc(O)ccc43)n2)C1 [Compound 13e, (S)-cyclopropyl(3-((4-(2-(3,4-dichlorophenyl)-5-hydroxy-1H-benzo[d]imidazole-1-yl)pyrimidin-2-yl)amino)piperidine-1-yl)methanone] | > 7.52 | –
O=C(C1CC1)N1CCC[C@H](Nc2nccc(-n3c(-c4ccc(F)c(C(F)(F)F)c4)nc4cc(O)ccc43)n2)C1 [Compound 13f, (S)-cyclopropyl(3-((4-(2-(4-fluoro-3-(trifluoromethyl)phenyl)-5-hydroxy-1H-benzo[d]imidazole-1-yl)pyrimidin-2-yl)amino)piperidine-1-yl)methanone] | 7.00 to 7.52 | –
O=C(C1CC1)N1CCC[C@H](Nc2nccc(-n3c(-c4ccc5c(c4)OCO5)nc4cc(O)ccc43)n2)C1 [Compound 13g, (S)-(3-(4-(2-(benzo[d][1,3]dioxole-5-yl)-5-hydroxy-1H-benz[d]imidazole-1-yl)pyrimidin-2-ylamino)piperidine-1-yl)(cyclopropyl)methanone] | 7.00 to 7.52 | –
Oc1ccc2nc(-c3ccc4ccccc4c3)n(-c3ccnc(NC4CCOCC4)n3)c2c1 [Compound 22a, 2-(naphthalene-2-yl)-1-(2-((tetrahydro-2H-pyran-4-yl)amino)pyrimidin-4-yl)-1H-benzo[d]imidazole-6-ol] | – | 7.00 to 7.52
Oc1ccc2nc(-c3ccc4ccccc4n3)n(-c3ccnc(NC4CCOCC4)n3)c2c1 [Compound 22b, 2-(Quinoline-2-yl)-1-(2-((tetrahydro-2H-pyran-4-yl)amino)pyrimidin-4-yl)-1H-benzo[d]imidazole-6-ol] | – | 7.00 to 7.52
Oc1ccc2nc(-c3ccc4c(c3)OCCO4)n(-c3ccnc(NC4CCOCC4)n3)c2c1 [Compound 22c, 2-(2,3-dihydrobenzo[b][1,4]dioxin-6-yl)-1-(2-((tetrahydro-2H-pyran-4-yl)amino)pyrimidin-4-yl)-1H-benzo[d]imidazole-6-ol] | – | 7.00 to 7.52
Oc1ccc2nc(-c3ccc4occc4c3)n(-c3ccnc(NC4CCOCC4)n3)c2c1 [Compound 22d, 2-(benzofuran-5-yl)-1-(2-((tetrahydro-2H-pyran-4-yl)amino)pyrimidin-4-yl)-1H-benzo[d]imidazole-6-ol] | – | 7.00 to 7.52

The remaining lines, values ahead:

pIC50 (Table 1) | pIC50 (Table 2) | SMILES
– | < 7.00 | Oc1ccc2nc(-c3ccc4ccccc4c3)n(-c3ccnc(NC4CCCCC4)n3)c2c1 [Compound 23a, 1-(2-(cyclohexylamino)pyrimidin-4-yl)-2-(naphthalene-2-yl)-1H-benzo[d]imidazole-6-ol]
– | < 7.00 | Oc1ccc2nc(-c3ccc4ccccc4n3)n(-c3ccnc(NC4CCCCC4)n3)c2c1 [Compound 23b, 3-(2-(cyclohexylamino)pyrimidin-4-yl)-2-(Quinoline-2-yl)-3H-benz[d]imidazole-5-ol]
– | < 7.00 | Oc1ccc2nc(-c3ccc4c(c3)OCCO4)n(-c3ccnc(NC4CCCCC4)n3)c2c1 [Compound 23c, 1-(2-(cyclohexylamino)pyrimidin-4-yl)-2-(2,3-dihydrobenzo[b][1,4]dioxin-6-yl)-1H-benzo[d]imidazole-6-ol]
– | < 7.00 | Oc1ccc2nc(-c3ccc4occc4c3)n(-c3ccnc(NC4CCCCC4)n3)c2c1 [Compound 23d, 2-(benzofuran-5-yl)-1-(2-(cyclohexylamino)pyrimidin-4-yl)-1H-benzo[d]imidazole-6-ol]
– | 7.00 to 7.52 | Oc1ccc2nc(-c3ccc(Cl)c(Cl)c3)n(-c3ccnc(NC4CCCCC4)n3)c2c1 [Compound 23e, 1-(2-(cyclohexylamino)pyrimidin-4-yl)-2-(3,4-dichlorophenyl)-1H-benzo[d]imidazole-6-ol]
– | < 7.00 | Oc1ccc2nc(-c3ccc(F)c(C(F)(F)F)c3)n(-c3ccnc(NC4CCCCC4)n3)c2c1 [Compound 23f, 1-(2-(cyclohexylamino)pyrimidin-4-yl)-2-(4-fluoro-3-(trifluoromethyl)phenyl)-1H-benzo[d]imidazole-6-ol]
– | 7.00 to 7.52 | O=C(C1CC1)N1CCC[C@H](Nc2nccc(-n3c(-c4ccc5ccccc5n4)nc4ccc(O)cc43)n2)C1 [Compound 26b, (S)-cyclopropyl(3-(4-(6-hydroxy-2-(Quinoline-2-yl)-1H-benzo[d]imidazole-1-yl)pyrimidin-2-ylamino)piperidine-1-yl)methanone]
– | > 7.52 | O=C(C1CC1)N1CCC[C@H](Nc2nccc(-n3c(-c4ccc5occc5c4)nc4ccc(O)cc43)n2)C1 [Compound 26d, (S)-(3-((4-(2-(benzofuran-5-yl)-6-hydroxy-1H-benzo[d]imidazole-1-yl)pyrimidin-2-yl)amino)piperidine-1-yl)(cyclopropyl)methanone]
– | > 7.52 | O=C(C1CC1)N1CCC[C@H](Nc2nccc(-n3c(-c4ccc(Cl)c(Cl)c4)nc4ccc(O)cc43)n2)C1 [Compound 26e, (S)-cyclopropyl(3-((4-(2-(3,4-dichlorophenyl)-6-hydroxy-1H-benzo[d]imidazole-1-yl)pyrimidin-2-yl)amino)piperidine-1-yl)methanone]
– | 7.00 to 7.52 | O=C(C1CC1)N1CCC[C@H](Nc2nccc(-n3c(-c4ccc(F)c(C(F)(F)F)c4)nc4ccc(O)cc43)n2)C1 [Compound 26f, (S)-cyclopropyl(3-((4-(2-(4-fluoro-3-(trifluoromethyl)phenyl)-6-hydroxy-1H-benzo[d]imidazole-1-yl)pyrimidin-2-yl)amino)piperidine-1-yl)methanone]
